Data set [1] in a line: Solubility in water. The format is physicochemical.
In data set [2] the test system is ovalbumin sensitised guinea pigs. As to the kind of experiment: Inhibition of eosinophil infiltration and hyper-reactivity in the guinea pig. The format is in vivo. To be noted: dose 200 μg/kg body weight i.t., positive control. Here is the method:
(3) Inhibition of Eosinophil Infiltration and Hyper-Reactivity in the Guinea Pig
In a method based on that described by Danahay et al., 1997, ovalbumin sensitised guinea pigs were dosed with mepyramine (30 mg kg^−1 ip) to protect against anaphylactic bronchospasm. Test compounds, dissolved in 0.9% saline, were given by the inhaled route (30 minutes breathing of an aerosol of the compound) or the intra-tracheal route, 30 minutes before and 6 hours after ovalbumin challenge (10 minutes breathing of an aerosol generated from a 0.5% solution of ovalbumin). Hyper-reactivity of the airways to the thromboxane mimetic U46619, was measured 24 hours after ovalbumin challenge in un-restrained animals using a whole body plethysmograph (Buxco Ltd., USA). The guinea pigs were then sacrificed and the lungs lavaged. Total and differential leukocyte counts were then obtained for the bronchoalveolar lavage fluid and the percentage reduction in eosinophil accumulation determined (Sanjar et al., 1992). Dexamethasone (200 μg kg^−1 i.t) was used as a positive control. Data was presented as the inhibitory effect of the specified dose expressed as a percentage of the vehicle control response.

Data set [3] deals with T1, integrin VLA-4, expressed on the Jurkat J6 (human lymphoblast cell line) cell membrane with VCAM-1 (Homo sapiens, UniProt P05556+P13612).
T1 construct: integrin VLA-4, expressed on the Jurkat J6 (human lymphoblast cell line) cell membrane; endogenous in cells; host or cells: Jurkat J6 cells (integrin). zzVCAM-1 was made in house in Drosophila melanogaster S2 cells
T1 sequence (P13612 34-1032): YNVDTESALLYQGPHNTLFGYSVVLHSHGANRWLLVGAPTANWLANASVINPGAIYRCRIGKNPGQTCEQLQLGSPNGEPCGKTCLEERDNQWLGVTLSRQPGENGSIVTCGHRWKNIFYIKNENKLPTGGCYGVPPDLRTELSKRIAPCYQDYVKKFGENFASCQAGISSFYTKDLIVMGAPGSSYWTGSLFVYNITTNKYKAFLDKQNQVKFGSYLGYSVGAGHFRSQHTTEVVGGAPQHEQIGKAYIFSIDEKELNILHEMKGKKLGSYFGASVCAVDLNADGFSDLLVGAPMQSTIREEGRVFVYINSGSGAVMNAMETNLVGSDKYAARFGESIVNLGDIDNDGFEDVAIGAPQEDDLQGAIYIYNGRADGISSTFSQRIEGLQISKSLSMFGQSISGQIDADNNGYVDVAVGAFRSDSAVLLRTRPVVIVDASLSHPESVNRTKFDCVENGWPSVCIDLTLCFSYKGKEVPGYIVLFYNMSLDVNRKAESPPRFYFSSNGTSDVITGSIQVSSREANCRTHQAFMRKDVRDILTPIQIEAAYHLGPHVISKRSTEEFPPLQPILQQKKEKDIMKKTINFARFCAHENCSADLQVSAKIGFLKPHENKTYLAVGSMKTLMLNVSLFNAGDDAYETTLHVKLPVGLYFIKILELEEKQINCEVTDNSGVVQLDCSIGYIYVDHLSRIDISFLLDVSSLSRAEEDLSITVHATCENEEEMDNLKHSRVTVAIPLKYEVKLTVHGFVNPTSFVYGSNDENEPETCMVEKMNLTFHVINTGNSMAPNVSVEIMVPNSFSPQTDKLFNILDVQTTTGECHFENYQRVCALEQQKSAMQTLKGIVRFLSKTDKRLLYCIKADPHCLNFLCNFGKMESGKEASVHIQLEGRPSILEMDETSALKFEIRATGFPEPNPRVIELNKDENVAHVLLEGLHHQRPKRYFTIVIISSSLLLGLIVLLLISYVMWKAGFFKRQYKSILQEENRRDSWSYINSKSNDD
T1 sequence (P05556 21-798): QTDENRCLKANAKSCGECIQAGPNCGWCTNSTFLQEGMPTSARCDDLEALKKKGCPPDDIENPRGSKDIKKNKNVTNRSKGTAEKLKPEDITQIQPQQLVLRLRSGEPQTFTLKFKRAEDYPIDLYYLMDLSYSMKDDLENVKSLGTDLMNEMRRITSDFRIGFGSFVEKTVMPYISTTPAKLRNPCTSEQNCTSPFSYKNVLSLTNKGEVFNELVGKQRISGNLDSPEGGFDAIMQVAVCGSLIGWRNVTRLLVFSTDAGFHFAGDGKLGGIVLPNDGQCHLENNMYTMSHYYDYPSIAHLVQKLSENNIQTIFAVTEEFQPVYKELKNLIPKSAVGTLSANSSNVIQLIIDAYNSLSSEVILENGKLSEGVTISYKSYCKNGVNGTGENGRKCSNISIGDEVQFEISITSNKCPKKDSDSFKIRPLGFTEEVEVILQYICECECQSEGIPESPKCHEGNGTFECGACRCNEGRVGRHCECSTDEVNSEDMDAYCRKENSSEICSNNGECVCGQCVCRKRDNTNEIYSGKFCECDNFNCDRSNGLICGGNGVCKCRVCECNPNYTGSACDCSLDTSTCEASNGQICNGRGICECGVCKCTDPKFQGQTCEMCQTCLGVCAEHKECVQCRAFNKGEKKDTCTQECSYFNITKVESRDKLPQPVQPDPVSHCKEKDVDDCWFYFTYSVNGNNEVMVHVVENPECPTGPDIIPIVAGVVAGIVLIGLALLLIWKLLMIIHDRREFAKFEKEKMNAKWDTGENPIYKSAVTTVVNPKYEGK
As to the kind of experiment: Jurkat J6/VCAM-1 adhesion assay. The format is cell-based. To be noted: Jurkat J6 cell adhesion to VCAM-1, 1 mM MnCl2; mean of n experiments. The procedure, abridged:
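Jurkat J6 cells loaded with BCECF-AM were added with compound in HBSS with 1 mM MnCl2 to plates coated with IgG-captured zzVCAM-1 (seven-domain, S2-expressed) and left to adhere for 30 min at 37 °C. After washing, fluorescence was read. pIC50 came from a four-parameter fit between no compound and 2 mM EDTA.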

Bounds are passed on as bounds.

With `Cc1ccccc1OCC(=O)N[C@@H](CC(C)C)C(=O)N[C@@H](Cc1ccc(OC(=O)N2CCC(C(N)=O)CC2)cc1)C(=O)[O-].[K+]` [Example 27A, (2S)-3-[4-({[4-(Aminocarbonyl)-1-piperidinyl]carbonyl}oxy)phenyl]-2-[((2S)-4-methyl-2-{[2-(2-methylphenoxy)acetyl]amino}pentanoyl)amino]propanoic acid potassium salt], in data set [1], the solubility – broadly, the dissolved amount per volume that the medium holds – is above 250 mg/mL.
Regarding `C[C@@H]1C[C@H]2[C@@H]3CCC4=CC(=O)C=C[C@]4(C)[C@@]3(F)[C@@H](O)C[C@]2(C)[C@@]1(O)C(=O)CO` [Dexamethasone, reference compound], the inhibition in vivo (usually the relative decrease from the control value, in per cent) at 0.2 mg/kg in data set [2] (Cavia porcellus, Eosinophil, inhaled or nasal, 24 h, airway hyper-reactivity to U46619) came out at 80%. Besides, the “% Inhibition Eosinophil Accumulation” value in data set [2] worked out at 55%.
Regarding `CC(C)C[C@H](NC(=O)COc1ccc2ccccc2c1Br)C(=O)N[C@@H](Cc1ccc(OC(=O)N2CCN(C(=O)c3ccco3)CC2)cc1)C(=O)O` [Example 44, (2S)-2-{[(2S)-2-({2-[(1-Bromo-2-naphthyl)oxy]acetyl}amino)-4-methylpentanoyl]amino}-3-[4-({[4-(2-furoyl)-1-piperazinyl]carbonyl}oxy)phenyl]propanoic acid], half-maximal inhibition in data set [3] (IC50) required 24 nM.
On the same count and under the same terms, the same measure for `CC(C)C[C@H](NC(=O)COc1ccc(C(=O)N2CCCCC2)cc1)C(=O)N[C@@H](Cc1ccc(OC(=O)N2CCC(NC(=O)C(C3CCCCC3)C3CCCCC3)CC2)cc1)C(=O)O` [Example 3, (2S)-3-{4-[({4-[(2,2-Dicyclohexylacetyl)amino]-1-piperidinyl}carbonyl)oxy]phenyl}-2-{[(2S)-4-methyl-2-({2-[4-(1-piperidinylcarbonyl)phenoxy]acetyl}amino)pentanoyl]amino}propanoic acid]: 41.7 nM.
Still for that read-out and setting: the same measure for `CC(C)C[C@H](NC(=O)COc1ccccc1I)C(=O)N[C@@H](Cc1ccc(OC(=O)N2CCC(C(N)=O)CC2)cc1)C(=O)O` [Example 26, (2S)-3-[4-({[4-(Aminocarbonyl)-1-piperidinyl]carbonyl}oxy)phenyl]-2-[((2S)-2-{[2-(2-iodophenoxy)acetyl]amino}-4-methylpentanoyl)amino]propanoic acid]: 2.95 nM; for `CC(=O)N1CCN(C(=O)Oc2ccc(C[C@H](NC(=O)[C@H](CC(C)C)NC(=O)c3cccc4c3oc3ccccc34)C(=O)O)cc2)CC1` [Example 18, (2S)-3-(4-{[(4-Acetyl-1-piperazinyl)carbonyl]oxy}phenyl)-2-({(2S)-2-[(dibenzo[b,d]furan-4-ylcarbonyl)amino]-4-methylpentanoyl}amino)propanoic acid]: 3.72 nM.

These data come from US6867192B1, “Compounds useful in the treatment of inflammatory diseases” (priority 1998, dated 2005).
